Data: patent US20240082285A1 (priority 2022, published 2024)

Experiments:
[1] = tested on: Wa strain RV; assay: Effect against RV synthesis (drug after virus), CCK-8 viral inhibition rate; type: cell-based, Rotavirus; conditions: 48 h; for effect of synthesis inhibition on RV: MA104-2 cells, 100 TCID50 virus
Procedure: 100 TCID50 virus solution (the virus acts with 10 μg/mL pancreatin for 30 min) is added to the 96-well culture plate of the MA104-2 cells that grow to the single layer, and each well contains 100 μL. The cells have been washed twice with PBS. Normal cell control is set, and added with an equal volume of DMEM. Incubation is conducted at 37° C. and 5% CO2 for 2 h. Then, the virus solution is sucked out and added into different concentrations of drug solution and ribavirin respectively, and each well contains 100 μL. Virus control is set. Only the cell maintenance solution is added, and each well contains 100 μL. Incubation is conducted at 37° C. and 5% CO2 for continuous observation. After continuous culture for 48 h, CCK-8 kit is used for detection. 1/10 volume of CCK-8 solution is added to each well, and incubated in the incubator. After 90 min, the absorbance is detected and recorded at 450 nm wavelength. The viral inhibition rate of the drug is calculated, and the experiment is repeated for 3 times. The formula of the viral inhibition rate is:
(§1) {(Adrug group−Avirus group)/(Anormal group−Avirus group)×100%}.

[2] = tested on: VP6 gene; assay: Gene expression of structural protein VP6 in RV-infected MA104 cells, real-time quantitative PCR; type: cell-based, Rotavirus; conditions: 1 μM, 5 M and 10 μM, compared with RV group, most significant at 5 μM
From the text: The Experimental Method is as Follows: • (1) Extraction and quantification of total RNA; • (2) Primer sequence design; • (3) Reverse transcription reaction; • (4) SYBR Green I fluorescent labeling is used for real-time quantitative PCR detection of expression of VP6 gene.

[3] = tested on: Wa strain RV; assay: Effect against RV adsorption (drug before virus), CCK-8 viral inhibition rate; type: cell-based, Rotavirus; conditions: MA104 cells, 1 μM, 5 μM and 10 μM, compared with ribavirin group
Procedure: The 96-well culture plate of the MA104 cells that grow to the single layer is added with the drug solution. Each drug solution is repeated with 6 wells, and each well contains 100 μL. An equal volume of ribavirin is added to the positive control group, and only an equal volume of DMEM culture solution (without serum) is added to the normal cell control group and the viral control group. Incubation is conducted at 37° C. and 5% CO2 for 2 h. The drug solution is sucked out. Except the normal cell control group, 100 TCID50 virus is added (the virus acts with 10 μg/mL pancreatin at 37° C. for 30 min), and each well contains 100 μL. Incubation is conducted at 37° C. and 5% CO2 for 2 h. The virus is sucked out, the cell maintenance solution is added, and each well contains 200 μL. Incubation is conducted at 37° C. and 5% CO2 for continuous observation. After culture for 48 h, CCK-8 kit is used for detection. 1/10 volume of CCK-8 solution is added to each well, and incubated in the incubator. After 90 min, the absorbance is detected and recorded at 450 nm wavelength. The experiment is repeated for 3 times. The formula of the viral inhibition rate is:
as §1

[4] = tested on: Wa strain RV; assay: Direct killing effect on RV (drug mixed with virus), CCK-8 viral inhibition rate; type: cell-based, Rotavirus; conditions: MA104 cells, 100 TCID50 virus, 48 h; inhibition rate lower than ribavirin group
Procedure: The drug is mixed with 100 TCID50 virus solution (the virus acts with 10 μg/mL pancreatin for 30 min) at an equal volume for 2 h. After the cells are washed twice with PBS, the cells are added to the 96-well culture plate of the MA104 cells that grow to the single layer. In the positive control group, the same operation as above is conducted for ribavirin and RV, and only an equal volume of DMEM (without serum) is added to the normal cell control group and the viral control group. Incubation is conducted at 37° C. and 5% CO2 for 2 h. Then, the mixed solution is sucked out, the cell maintenance solution is added, and each well contains 100 μL. Incubation is conducted at 37° C. and 5% CO2 for continuous observation. After culture for 48 h, CCK-8 kit is used for detection. 1/10 volume of CCK-8 solution is added to each well, and incubated in the incubator. After 90 min, the absorbance is detected and recorded at 450 nm wavelength. The viral inhibition rate of the drug is calculated, and the experiment is repeated for 3 times. The formula of the viral inhibition rate is:
as §1

[5] = tested on: MA104 cells; assay: Toxicity of Chebulinic acid to MA104 cells by CCK8 method; type: cell-based; conditions: 48 h
Procedure: According to the common drug concentration range of Chebulinic acid, the cytotoxicity pre-experiment is performed between 1 μM and 25 μM in this experiment. The MA104 cells at the logarithmic growth stage are observed under a microscope. The cellular morphology is uniform and full with clear edges, and when the number reaches 80%, digestion, centrifugation and re-suspension are conducted. After further dilution of the suspension, […] is taken on a blood cell counting plate to count and calculate the required cell volume. Then, the cells are laid in a 96-well plate, 100 µL of cell suspension is added to each well, and the cell density is 8×10^4 cells/mL. When the cells adhere to the wall to form a single layer, the drug group is administered, and the normal group is added with an equal volume of DMEM (without serum). After incubation for 48 h, the cytotoxicity of Chebulinic acid is detected by CCK8 reagent. 1/10 volume of CCK8 solution is added to each well and incubated in an incubator. After 90 min, the absorbance is detected and recorded under the condition of oscillation for 10 s and at 450 nm wavelength. The formula for the relative survival rate of the cells is:
{(Axpenmentai group−Ablank)/(Acontrol group−Ablaimk)×100%}.

[6] = Rotavirus, read-out: anti-RV inhibition rate (synthesis)

Structure (SMILES) | effect of synthesis inhibition on RV [1] | inhibition at 1 µM [1, 6] | inhibition at 5 µM [1, 6] | inhibition at 10 µM [1, 6] | VP6 expression [2] | anti-RV adsorption effect [3] | direct killing effect on RV [4] | drug toxicity to the cells ([5]; 1 μM to 10 μM) | average survival rate ([5]; Chebulinic acid 1 μM to 10 μM)
O=C(O)C[C@@H]1C(=O)O[C@H]2[C@H](OC(=O)c3cc(O)c(O)c(O)c3)[C@@H](OC(=O)c3cc(O)c(O)c4c3[C@H]1[C@H](O)C(=O)O4)[C@H](OC(=O)c1cc(O)c(O)c(O)c1)O[C@@H]2COC(=O)c1cc(O)c(O)c(O)c1 [Chebulinic acid] | obvious effect of synthesis inhibition | 80% | 75.3% | 61.9% | significantly decreased | no obvious anti-RV adsorption effect | no obvious direct killing effect | no drug toxicity | above 95%
NC(=O)c1ncn([C@@H]2O[C@H](CO)[C@@H](O)[C@H]2O)n1 [ribavirin, reference compound] | obvious effect of synthesis inhibition |  |  |  |  |  |  |  | 
